Here are results for one molecule from patent publication US9976141B2, “Compositions and methods for inhibiting gene expression of Hif2alpha” (Arrowhead Madison Inc., priority 2015, dated 2018).

In experiment [1] the test system is human (tumor) Hif2α (EPAS1) mRNA. The experiment can be described thus: HiF2α RNAi trigger/sunitinib combination study: HiF2α expression in RCC tumors (Table 10A). It is filed as in vivo. The note with it: 4 doses, 3 cycles.
Description: Female athymic nude mice were anesthetized with ˜3% isoflourane and placed in the right lateral decubitus position. A small, 0.5-1 cm, longitudinally abdominal incision in the left flank was made. Using a moist cotton swab, the left kidney was lifted out of the peritoneum and gently stabilized. Just before injection, a 1.0 ml syringe was filled with the cell/Matrigel mixture and a 27 gauge needle catheter was attached to the syringe tip. The filled syringe was then attached to a syringe pump (Harvard Apparatus, model PHD2000) and primed to remove air. The tip of a 27-gauge needle catheter attached to a syringe was inserted just below the renal capsule near the caudal pole and the tip of the needle was then carefully advanced cranially along the capsule 3-4 mm. […]
In preparation for quantitative PCR, total RNA was isolated from tissue samples homogenized in TriReagent (Molecular Research Center, Cincinnati, Ohio) following the manufacturer's protocol. […] Quantitative PCR was performed by using a 7500 Fast or StepOnePlus Real-Time PCR system (Life Technologies). […]
(§1) Tumor growth rates were evaluated by serum SEAP collected at 5-7 days interval during treatment. Tumor weight and volume was determined at necropsy. Gross tumor morphology and H&E histopathology were evaluated.
The subject of experiment [2] is A498-SEAP ccRCC orthotopic kidney tumor. The experiment can be described thus: HiF2α RNAi trigger/sunitinib combination study: tumor size and SEAP expression (Table 10B). It is filed as in vivo, mice. As to conditions: trigger = Duplex AD1884 with polymer 064 (125 μg polymer) iv every 4 weeks, 4 doses, sunitinib oral gavage, 3 cycles.
Description: Female athymic nude mice were anesthetized with ˜3% isoflourane and placed in the right lateral decubitus position. A small, 0.5-1 cm, longitudinally abdominal incision in the left flank was made. Using a moist cotton swab, the left kidney was lifted out of the peritoneum and gently stabilized. Just before injection, a 1.0 ml syringe was filled with the cell/Matrigel mixture and a 27 gauge needle catheter was attached to the syringe tip. The filled syringe was then attached to a syringe pump (Harvard Apparatus, model PHD2000) and primed to remove air. The tip of a 27-gauge needle catheter attached to a syringe was inserted just below the renal capsule near the caudal pole and the tip of the needle was then carefully advanced cranially along the capsule 3-4 mm. A 10 μl aliquot of 2:1 (vol:vol) cell/matrigel mixture containing about 300,000 cells was slowly injected into the kidney parenchyma using a syringe pump. The needle was left in the kidney for 15-20 seconds to ensure the injection was complete. The needle was then removed from the kidney and a cotton swab was placed over the injection site for 30 seconds to prevent leakage of the cells or bleeding. The kidney was then gently placed back into the abdomen and the abdominal wall was closed. Serum was collected every 7-14 days after implantation to monitor tumor growth using a commercial SEAP assay kit. For most studies, tumor mice were used 5-6 weeks after implantation, when tumor measurements were typically around 4-8 mm.
HiF2α RNAi trigger-delivery polymer conjugate (125 μg polymer) was prepared using protocol 7 Duplex ID No. AD1884 and polymer 064. HiF2α RNAi trigger-delivery polymer conjugate was dosed every 4 weeks by iv injection, 4 doses total. Sunitinib (Malate salt) obtained from LC laboratories was suspended in Ora-plus/Ora sweet (50:50, vol:vol). […]
as §1

Consider `CCN(CC)CCNC(=O)c1c(C)[nH]c(/C=C2\C(=O)Nc3ccc(F)cc32)c1C` [sunitinib, Sunitinib], for which the “Relative HiF2α expression levels decreased” value in experiment [1] (DPC 125 μg polymer iv every 4 weeks, sunitinib oral gavage 5 days/week 2 weeks on, 2 weeks off) was determined as 11.4%. Besides, the “HiF2α expression, Relative expression” value in experiment [1] (trigger = Duplex AD1884 with polymer 064 (125 μg polymer) iv every 4 weeks, sunitinib oral gavage 5 days/week, 2 weeks on/2 off) turned out to be 0.886. In addition, in experiment [2] (at necropsy), the Tumor volume came out at 2113.5 ± 368 mm3 and the Tumor weight is on record as 2385.7 ± 845 mg. In experiment [2] (serum SEAP, overall), the “Fold increase in SEAP” value is 18.1 ± 9.8.
